Consider three molecules from patent US20030199567A1, “Combinations of an alpha-2-delta ligand with a selective inhibitor of cyclooxygenase-2” (priority 2002, published 2003).

The conditions of data set [1]: cited from earlier work.
Data set [2] relates to Experimental Osteoarthritis in Rabbit. The data set is described as follows: Induction of Experimental Osteoarthritis in Rabbit (EOA in Rabbit). The format is in vivo. The following applies: conclusion drawn from the expected study. As for the experimental part:
Induction of Experimental Osteoarthritis in Rabbit (“EOA in Rabbit”)
Normal rabbits are anaesthetized and anteromedial incisions of the right knees performed. The anterior cruciate ligaments are visualized and sectioned. The wounds are closed and the animals are housed in individual cages, exercised, and fed ad libitum. Rabbits are given either vehicle (water), a combination comprising valdecoxib and gabapentin, or a combination comprising valdecoxib and 3-(1-aminomethyl-cyclohexylmethyl)-4h-[1,2,4]oxadiazol-5-one hydrochloride (10 rabbits per group). […]
The cartilage changes on the femoral condyles and tibial plateaus are graded separately under a dissecting microscope (Stereozoom, Bausch & Lomb, Rochester, N.Y.). […] The surface area changes are measured and expressed in mm^2. […]
Representative specimens of synovial membrane from the medial and lateral knee compartments are dissected from underlying tissues. […] The average is calculated and considered as a unit for the whole knee. […]
Mean values and SEM are calculated and statistical analysis is done using the Mann-Whitney U-test.

In the case of `Cc1onc(-c2ccccc2)c1-c1ccc(S(N)(=O)=O)cc1` [valdecoxib, 4-(5-methyl-3-phenyl-4-isoxazolyl)-benzenesulfonamide], the tolerability result in data set [1] (combined analysis of various clinical studies) is “well tolerated”. Further, the “overall upper gastrointestinal safety profile (ulcers, perforations, obstructions and GI bleeds)” value in data set [1] (versus conventional NSAIDs such as ibuprofen, diclofenac and naproxen) was “significantly better”.

As for `NCC1(CC(=O)O)CCCCC1` [gabapentin], the “treatment of cartilage damage by the Alpha-2-delta ligand” value in data set [2] was “effective”.

Consider `Cl.NCC1(Cc2noc(=O)[nH]2)CCCCC1` [3-(1-aminomethyl-cyclohexylmethyl)-4H-[1,2,4]oxadiazol-5-one hydrochloride], for which the “treatment of cartilage damage by the Alpha-2-delta ligand” value in data set [2] is “effective”.
